Here are results for 1 compound from patent US20230141823A1, “PREBIOTIC AND PROBIOTIC TREATMENT TO REDUCE ORAL DYSBIOSIS AND PROMOTE EUBIOSIS” (FUNDACIÓN PARA EL FOMENTO DE LA INVESTIGACIÓN SANITARIA Y …, priority 2019, published 2023).

In data set [1] the test system is oral biofilms grown from unstimulated saliva. The procedure:
(§1) BHI medium (Biolife) with an additional 0.05 mg/L haemin, 0.005 mg/L menadione and 0.2 mM vitamin K (all Sigma-Aldrich) was prepared of which 100 pi was added to each well for background impedance measurements. An additional 25 µl of a 65 mM nitrate in water or just water were added to each well of the nitrate or control condition, respectively. Then, 125 pi freshly collected saliva was added, leading to a final concentration of 6.5 mM nitrate in the nitrate condition. The E-Plate 96 was placed in the xCELLigence system inside an incubator at 37° C. Every 10 minutes, a Cell Index measurement was taken. […] For Oh measurements, 1:1 medium and saliva mixtures were used. Then, duplicates of supernatant and biofilm were taken after 5 h and 9 h of growth. The supernatant was sampled and stored at −20° C. until pH, nitrate, nitrite, ammonium and lactate measurements. After this, a PBS washing step was performed and duplicates of biofilms were resuspended together in 200 pi PBS for storage at −20° C. until DNA isolation for sequencing.
For the nitrate, nitrite, ammonium, lactate and pH measurements, the RQflex® 10 Reflectoquant® (Merck Millipores), a reflectometer that measures the reflection of color changing test strips, was used.
In the case of nitrate, nitrite, ammonium and lactate measurements, the supernatant of the cultures was diluted 1:10 with water to minimize the interference of medium compounds. […] For pH measurements, undiluted supernatant was used. For all measurements except ammonium, 15 pi of (diluted) supernatant was added to two reactive patches on a strip, excess liquid was removed by tipping the side of the strip on a tissue, the corresponding incubation time was applied for each measurement, and the strip was put inside the reflectometer.
Nitrite was measured first. The diluted supernatants in which 0.5 mg/l or more nitrite was detected were treated with amidosulfuric acid to remove nitrite before nitrate measurements. For this, […] of diluted supernatant was mixed with 1.5 ml amidosulfuric acid solution (10%), and directly added to the strips.
For ammonium measurements, aliquots were made of […] diluted supernatant to which 10 m l of reagent 1 of the kit was added first and resuspended well. Then, […] of a freshly made mixture of one scoop of reagent 2 (both provided with the kit) dissolved in 1.25 ml water was added directly and resuspended well. This solution was then directly added to the strips and incubated. Five seconds before the measurements, excess liquid was removed. All measured concentrations were adjusted by dilution factors.

Data set [2] relates to oral biofilm grown from saliva of donors D2 and D25. Briefly: Effect of isolates on in vitro biofilms: colonization by sequencing. The data set is classed as cell-based, human. The settings on record: 5 h of growth. The protocol:
Six isolates selected as best potential probiotics based on the results from previous experiments were studied in vitro to define the effect of these isolates when they are added to an oral biofilm. These isolates were tested by growing them with saliva of two different donors (D2 and D25 in our database) in a 96-wells plate. For each experiment, there were 4 conditions: control, nitrate (i.e., 6.5 mM nitrate), control+isolate, and nitrate+isolate. […] Then, 100 pL of saliva (or BHI for negative controls) was added and, for the nitrate conditions, 10 pL of nitrate solution 65 mM was added (or 10 pL of BHI for control conditions). Negative controls were added in each experiment: only BHI medium and BHI medium+nitrate. Before being added to the 96-well plate, the isolates were grown for 24 h. Then, 40 pL isolate in BHI solution with OD 1.5 was added (or 40 pL of just BHI in conditions without isolates) to each well. The final concentration of nitrate was 6.5 mM and starting OD of the isolate was 0.24. The 96-well plate was sealed to prevent oxygen presence, and incubated during 5 h 30 min at 37° C. After that, the supernatant was collected, the pellet resuspended in 30 pL of PBS and both stored at −20° C. until measurements were performed. The DNA was extracted and the biofilms were sequenced as described in EXAMPLE 1.

Data set [3] concerns biofilms from subgingival plaque of patients with periodontitis. The protocol:
In addition to the oral biofilms from healthy individuals provided in EXAMPLE 1, ex vivo experiments with a dysbiotic community (subgingival plaque samples from patients with periodontitis) were performed. Eleven patients diagnosed with periodontitis were enrolled into the study. Subgingival plaque was collected by inserting eight to ten sterile paper points inside the deepest periodontal pockets. The paper points were then transferred to a 2 mL tube containing reduced transport media (RTF) and stored in a cooling box at around 4° C. for max. 18 hours. For the biofilm growth, BHI containing vitamin K and hemin (as described in EXAMPLE 1) was used. Transport medium was removed by centrifugation (1 min, 12000 rpm), followed by resuspension into 1 mL BHI. The xCELLigence system described in EXAMPLE 1 was used. Patient samples were incubated under four different conditions; control, nitrate, control+probiotic and nitrate+probiotic. First, 100 µl of periodontal plaque in BHI was added to the wells. Then, for the nitrate condition, 5 µl of 250 mM nitrate in BHI was added to the wells to obtain a 5 mM nitrate concentration. For the control+probiotic and nitrate+probiotic conditions, 45 pi of R. aeria D1P7 culture of OD (600 nm)=0.417 was added to the wells, resulting in a final OD (600 nm) of 0.075 per well. BHI was added to reach a final volume of 250 pi. A medium control (without patient sample or probiotic) with nitrate (Cntr) was used to determine the initial amounts of nitrate and nitrite in the medium. After 7 hours of incubation, supernatant and biofilm was harvested for nitrate/nitrite measurements and 16S rRNA gene sequencing, respectively (both described in EXAMPLE 1).

For data set [4] the following is noted: adult of 60 kg; cited from earlier work.
The subject of data set [5] is oral biofilms grown from unstimulated saliva. The procedure: as §1
This is another data set of the same source.

Where [6] appears, read: Donor 2, Nitrate condition (6.5 mM).
[7] abbreviates: Donor 25, Nitrate condition (6.5 mM).

For `O=[N+]([O-])O` [Nitrate, nitrate], the “decrease of nitrate after 5 h” value in data set [1] (6.5 mM nitrate added, 5 of 12 donors) was 76-85%. Besides, the “nitrate left after 5 h” value in data set [1] (6.5 mM nitrate added, 7 of 12 individuals) is given as “no nitrate detectable”. The “average nitrite in supernatant” value in data set [1] (6.5 mM nitrate condition, 5 h (1.64 mg/l at 0 h)) was 64.68 mg/L. For the same compound, the “pH compared to control condition” value in data set [1] (6.5 mM nitrate, 5 h and 9 h, p<0.005) was “significantly higher”. Moreover, in data set [1] (after 9 h), the “share of the 6.5 mM added nitrate accounted for by ammonium (stoichiometric)” value was found to be 73.1%. Moreover, in data set [1] (nitrate condition (control 1.72×)), the “increase of average ammonium after 5 h” value was 2.21 ×. For the same compound, the “increase of average lactate after 5 h” value in data set [1] (nitrate condition (control 4.74×)) was determined as 3.40 ×. Also, the “ammonium higher than in the control condition” value in data set [1] (nitrate condition, after 9 h) was 4.75 mM. For the same compound, the “R. aeria (%) in biofilm” value in data set [2] (setting [6]) turned out to be 0.06%; in data set [2] (setting [7]) it was 0.03%. For the same compound, the “R. mucilaginosa (%) in biofilm” value worked out at 2.33% in data set [2] (setting [6]) and 7.94% in data set [2] (setting [7]). In data set [3] (11 patients, 7 h), the “mean growth curve of the periodontitis biofilms versus control condition” value is “lower”. Besides, in data set [3] (7 hours, versus control), the “levels of periodontal pathogens such as Porphyromonas, Eikenella and Tannerella” value is reported as “reducing the levels”. Moreover, the “nitrate reduced after the 7 hours of growth” value in data set [3] (periodontal samples (n=11), anaerobic) was “around 20%”. Further, the “Acceptable Daily Intake, ADI” value in data set [4] is given as 222 mg. Besides, the “real-time impedance measurements of biofilm growth compared to control biofilms” value in data set [5] (6.5 mM nitrate (403 mg/L)) is given as “did not show significant changes”. In addition, the “biofilm protein levels compared to control” value in data set [5] (6.5 mM nitrate, 5 h and 9 h) is “did not differ significantly”.
